Results as given in US10590113B2, “6-hydroxy-4-oxo-1,4-dihydropyrimidine-5-carboxamides as APJ agonists” (priority 2016, dated 2020).

Target: T1, human APJ receptor (Homo sapiens, UniProt P35414)
T1 construct: expressed in transfected cells; host or cells: HEK293
T1 sequence (P35414 1-380): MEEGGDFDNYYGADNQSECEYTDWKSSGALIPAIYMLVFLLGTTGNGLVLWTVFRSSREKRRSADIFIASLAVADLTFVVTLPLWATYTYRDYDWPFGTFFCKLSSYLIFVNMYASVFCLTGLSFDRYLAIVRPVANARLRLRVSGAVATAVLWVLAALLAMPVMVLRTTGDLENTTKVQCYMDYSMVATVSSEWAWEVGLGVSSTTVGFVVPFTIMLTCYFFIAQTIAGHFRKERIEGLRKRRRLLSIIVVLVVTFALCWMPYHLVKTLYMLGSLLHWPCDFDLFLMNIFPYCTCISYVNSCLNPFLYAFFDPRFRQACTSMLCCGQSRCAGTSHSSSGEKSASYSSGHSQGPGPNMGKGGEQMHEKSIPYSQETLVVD
Experiment: Intracellular cAMP Accumulation Assay (APJ hcAMP, HTRF)
Type: cell-based
Settings: human APJ, cAMP accumulation; potency range class; read-out: hAPJ cAMP EC50 Potency range
Method in brief: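 Stably transfected HEK293 cells (5,000/well) incubated 30 min at room temperature with serially diluted compound, […] and 2 μM forskolin. cAMP measured by HTRF after 60 min with detection reagents, quantified against a cAMP standard curve; EC50 from variable-slope sigmoidal fit of inhibition of forskolin-stimulated cAMP.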

Compound | EC50
CCn1ccc(-c2nc(=O)c(C(=O)N3CCC(c4ccc(F)cc4F)C3)c(O)n2-c2c(OC)cccc2OC)n1 (single isomer, unassigned) [Example 269, 5-[3-(2,4-difluorophenyl)pyrrolidine-1-carbonyl]-1-(2,6-dimethoxyphenyl)-2-(1-ethyl-1H-pyrazol-3-yl)-6-hydroxy-1,4-dihydropyrimidin-4-one] | 0.01 to 10 nM
COc1cccc(OC)c1-n1c(-c2cccc(Cl)c2)nc(=O)c(C(=O)N2CCC(c3ncc(F)cc3F)C2)c1O (single isomer, unassigned) [Example 238, 2-(3-chlorophenyl)-5-[3-(3,5-difluoropyridin-2-yl)pyrrolidine-1-carbonyl]-1-(2,6-dimethoxyphenyl)-6-hydroxy-1,4-dihydropyrimidin-4-one] | 0.01 to 10 nM
CCn1ccc(-c2nc(=O)c(C(=O)N3CCC(c4c(F)cccc4F)C3)c(O)n2-c2c(OC)cccc2OC)n1 (single isomer, unassigned) [Example 276, 5-[3-(2,6-difluorophenyl)pyrrolidine-1-carbonyl]-1-(2,6-dimethoxyphenyl)-2-(1-ethyl-1H-pyrazol-3-yl)-6-hydroxy-1,4-dihydropyrimidin-4-one] | 0.01 to 10 nM
COc1cccc(OC)c1-n1c(-c2cccc(Cl)c2)nc(=O)c(C(=O)N2CCC(c3ncc(Cl)cc3F)C2)c1O (single isomer, unassigned) [Example 264, 5-[3-(5-chloro-3-fluoropyridin-2-yl)pyrrolidine-1-carbonyl]-2-(3-chlorophenyl)-1-(2,6-dimethoxyphenyl)-6-hydroxy-1,4-dihydropyrimidin-4-one] | 0.01 to 10 nM

Next, values leading:

EC50 | Compound
0.01 to 10 nM | CCc1cccc(CC)c1-n1c(-c2ccn(C3CC3)n2)nc(=O)c(C(=O)N2CCC(c3ncccc3F)C2)c1O (single isomer, unassigned) [Example 319, 2-(1-cyclopropyl-1H-pyrazol-3-yl)-1-(2,6-diethylphenyl)-5[3(3-fluoropyridin-2-yl)pyrrolidine-1-carbonyl]-6-hydroxy-1,4-dihydropyrimidin-4-one]
0.01 to 10 nM | CCn1ccc(-c2nc(=O)c(C(=O)N3CC[C@@H](c4ccccc4)C3)c(O)n2-c2cccc(C(C)C)c2)n1 [Example 288, 2-(1-ethyl-1H-pyrazol-3-yl)-6-hydroxy-5-[(3S)-3-phenylpyrrolidine-1-carbonyl]-1-[3-(propan-2-yl)phenyl]-1,4-dihydropyrimidin-4-one]
0.01 to 10 nM | CCn1ccc(-c2nc(=O)c(C(=O)N3CC[C@H](c4ccccc4)C3)c(O)n2-c2cccc(C(C)C)c2)n1 [Example 291, 2-(1-ethyl-1H-pyrazol-3-yl)-6-hydroxy-5-[(3R)-3-phenylpyrrolidine-1-carbonyl]-1-[3-(propan-2-yl)phenyl]-1,4-dihydropyrimidin-4-one]
0.01 to 10 nM | CCCCc1nc(=O)c(C(=O)N2CCC(c3ncccc3F)C2)c(O)n1-c1c(OC)cccc1OC (single isomer, unassigned) [Example 366, 2-butyl-1-(2,6-dimethoxyphenyl)-5-(3-(3-fluoropyridin-2-yl)pyrrolidine-1-carbonyl)-6-hydroxypyrimidin-4(1H)-one]
0.01 to 10 nM | CCc1cccc(CC)c1-n1c(-c2ccn(C(C)C)n2)nc(=O)c(C(=O)N2CCC(c3ccccc3F)C2)c1O (single isomer, unassigned) [Example 295, 1-(2,6-diethylphenyl)-5-[3-(2-fluorophenyl)pyrrolidine-1-carbonyl]-6-hydroxy-2-[1-(propan-2-yl)-1H-pyrazol-3-yl]-1,4-dihydropyrimidin-4-one]
0.01 to 10 nM | CCCCc1nc(=O)c(C(=O)N2CCC(c3ncc(F)cc3F)C2)c(O)n1-c1c(OC)cccc1OC (single isomer, unassigned) [Example 358, 2-butyl-5-(3-(3,5-difluoropyridin-2-yl)pyrrolidine-1-carbonyl)-1-(2,6-dimethoxyphenyl)-6-hydroxypyrimidin-4(1H)-one]

Same assay, conditions: human APJ, intracellular cAMP accumulation; read-out: hAPJ cAMP EC50 Potency range

EC50 | Compound
0.01 to 10 nM | CC[C@@H](c1cc(F)cc(F)c1)n1c(-c2nc(C)cs2)nc(=O)c(C(=O)N2CCC(c3ncccc3F)C2)c1O (single isomer, unassigned) [Example 204]
0.01 to 10 nM | CCCCc1nc(=O)c(C(=O)N2CCC(c3cccc(F)c3)C2)c(O)n1-c1c(OC)cccc1OC (single isomer, unassigned) [Example 80, 2-butyl-1-(2,6-dimethoxyphenyl)-5-[3-(3-fluorophenyl)pyrrolidine-1-carbonyl]-6-hydroxy-1,4-dihydropyrimidin-4-one]
0.01 to 10 nM | CCCCc1nc(=O)c(C(=O)N2CC[C@H](c3ccccc3)C2)c(O)n1[C@H](C)c1ccccc1 [Example 117, 2-butyl-6-hydroxy-3-[(1R)-1-phenylethyl]-5-[(3R)-3-phenylpyrrolidine-1-carbonyl]-3,4-dihydropyrimidin-4-one]
0.01 to 10 nM | CCCCc1nc(=O)c(C(=O)N2CCC(c3ccccc3F)C2)c(O)n1-c1c(OC)cccc1OC (single isomer, unassigned) [Example 52, 2-butyl-1-(2,6-dimethoxyphenyl)-5-[3-(2-fluorophenyl)pyrrolidine-1-carbonyl]-6-hydroxy-1,4-dihydropyrimidin-4-one]
0.01 to 10 nM | CCOCc1nc(=O)c(C(=O)N2CCC(c3cccnc3)C2)c(O)n1-c1c(OC)cccc1OC (single isomer, unassigned) [Example 85, 1-(2,6-dimethoxyphenyl)-2-(ethoxymethyl)-6-hydroxy-5-[3-(pyridin-3-yl)pyrrolidine-1-carbonyl]-1,4-dihydropyrimidin-4-one]
0.01 to 10 nM | CCOCc1nc(=O)c(C(=O)N2CCC(c3cccc(F)c3)C2)c(O)n1-c1c(OC)cccc1OC (single isomer, unassigned) [Example 83, 1-(2,6-dimethoxyphenyl)-2-(ethoxymethyl)-5-[3-(3-fluorophenyl)pyrrolidine-1-carbonyl]-6-hydroxy-1,4-dihydropyrimidin-4-one]
0.01 to 10 nM | CC[C@@H](c1cc(F)cc(F)c1)n1c(-c2nc(C)cs2)nc(=O)c(C(=O)N2CCC(c3ccc(F)cc3)C2)c1O (single isomer, unassigned) [Example 211]
0.01 to 10 nM | COc1cccc(OC)c1-n1c(CCC2CC2)nc(=O)c(C(=O)N2CC[C@H](c3ccccc3)C2)c1O [Example 96, 2-(2-cyclopropylethyl)-1-(2,6-dimethoxyphenyl)-6-hydroxy-5-[(3R)-3-phenylpyrrolidine-1-carbonyl]-1,4-dihydropyrimidin-4-one]

Same assay, conditions: read-out: hAPJ cAMP EC50 Potency range

EC50 | Compound
0.01 to 10 nM | CCOCc1nc(=O)c(C(=O)N2CCC(Cc3ccc(Cl)cc3)CC2)c(O)n1-c1c(OC)cccc1OC [Example 375, 5-(4-(4-chlorobenzyl)piperidine-1-carbonyl)-1-(2,6-dimethoxyphenyl)-2-(ethoxymethyl)-6-hydroxypyrimidin-4(1H)-one]
0.01 to 10 nM | CCCCc1nc(=O)c(C(=O)N2CCC(c3ccc(F)cn3)C2)c(O)n1-c1c(OC)cccc1OC (single isomer, unassigned) [Example 371, 2-butyl-1-(2,6-dimethoxyphenyl)-5-(3-(5-fluoropyridin-2-yl)pyrrolidine-1-carbonyl)-6-hydroxypyrimidin-4(1H)-one]

Compound | EC50
COc1cccc(OC)c1-n1c(COC(C)(C)C)nc(=O)c(C(=O)N2CCC(c3ccccc3C#N)C2)c1O (single isomer, unassigned) [Example 369, 2-(1-(2-(tert-butoxymethyl)-1-(2,6-dimethoxyphenyl)-6-hydroxy-4-oxo-1,4-dihydropyrimidine-5-carbonyl)pyrrolidin-3-yl)benzonitrile] | 0.01 to 10 nM
